The record followed here is PubChem BioAssay (NCI).

Holding throughout (assay): DTP human tumour cell line panel, 48 h
In experiment [1] the test system is SNB-19 CNS.
Experiment [2] deals with M19-MEL melanoma.
In experiment [3] the test system is DMS 273 small cell lung.
The test system of experiment [4] is HOP-62 NSCLC.
Experiment [5] concerns UO-31 renal.
The subject of experiment [6] is KM12 colon.
In experiment [7] the test system is RPMI-8226 leukemia.
Experiment [8] has as its system 786-0 renal.
In experiment [9] the test system is SK-MEL-28 melanoma.
In experiment [10] the test system is NCI/ADR-RES ovarian.

Each structure is given as a SMILES string.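 Five concentrations, 48 hours, 96-well plates. GI50 marks 50% less growth. At the TGI there is no net growth.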

Consider `CC1OC(=O)C(O)=C1O` (stereo unspecified), for which the TGI in experiment [1], in experiment [2], in experiment [3], in experiment [4], in experiment [5] and in experiment [6] was over 100 µM throughout. The TGI in experiment [7] and in experiment [8] was over 100 µM throughout.
In the case of `CCN(CC)CC1CCCCN1CC(=O)N1CC(C)C(=O)Nc2ccccc21` (stereo unspecified), the TGI in experiment [1], in experiment [2], in [3], in experiment [4], in experiment [5] and in experiment [7] was over 100 µM in each case. In addition, the TGI in experiment [9] and in experiment [8] was over 100 µM in each case.
For `CC1=C(C(=O)Nc2ccccc2)C(c2ccccc2Cl)C(C(=O)Nc2ccccc2)=C(C)N1`, the TGI – broadly, the concentration giving total growth inhibition – in [1] came to 92.7 µM; in experiment [2], 36 µM; in experiment [3] it was 41.9 µM; in experiment [4] it was 38.5 µM; in [5], 84.4 µM; in experiment [7], 46.9 µM. The TGI in [9] was 61.9 µM; in experiment [8] it was 42.1 µM.
On to `O=C(O)CCNS(=O)(=O)c1ccc2ccccc2c1`, for which the TGI in [1], in experiment [2], in experiment [3], in experiment [5], in experiment [6] and in experiment [7] was over 100 µM each time. Further, the TGI in experiment [9] and in experiment [8] was over 100 µM throughout.
For the compound `COc1ccc(C2=Nc3ccccc3SC(C)C2)cc1OC` (stereo unspecified), the TGI in experiment [1] was 40.2 µM; in experiment [3], 34.8 µM; in experiment [5], 32.4 µM; in experiment [6], 36.3 µM; in [7] it was 38.4 µM; in [9] it was 56.6 µM. In [8], the TGI turned out to be 30.2 µM.
For the compound `N#CC(C(=O)CCCC(=O)Nc1ccc(Cl)cc1Cl)c1ccccc1` (stereo unspecified), the TGI in experiment [1], in experiment [2], in experiment [3], in [4], in experiment [5] and in experiment [6] was over 100 µM throughout. For the same compound, the TGI in experiment [9] and in experiment [8] was over 100 µM in each case.
`CCCCCC(=O)Nc1nc2nc[nH]c2c(=O)[nH]1`: the TGI in experiment [1], in experiment [2], in experiment [3], in experiment [4], in [5] and in experiment [6] was over 100 µM throughout. Also, the TGI in [7] and in experiment [8] was over 100 µM each time.
On to `COC1CC(O)C(OC(=O)c2ccccc2)C(C)O1` (stereo unspecified), for which the TGI in experiment [1], in experiment [2], in experiment [3], in experiment [4], in [6] and in [7] was over 100 µM throughout. Besides, the TGI in [9] and in [8] was over 100 µM in each case.
Regarding `COc1ccc2oc3c(OC)c(OC)c(OC)cc3c(=O)c2c1`, the TGI in experiment [1], in experiment [2], in [3], in experiment [4], in experiment [5] and in [7] was over 100 µM throughout. Besides, the TGI in [9] and in experiment [8] was over 100 µM throughout.
Turning to `Cc1ccc(C)c(N2C(=O)C(=O)C(c3nc4ccccc4o3)C(=O)C2=O)c1`, the TGI in experiment [1], in [2], in experiment [3], in experiment [4], in experiment [5] and in [6] was over 100 µM throughout. The TGI in [9] and in experiment [8] was over 100 µM throughout.
As to `CCC(C)CC(C)CC(C)/C=C(\C)C1=C(C)CC(C)(O)O1` (stereo unspecified), the TGI in experiment [2] was over 100 µM; in experiment [3], over 100 µM; in experiment [5] it was over 100 µM; in [7], 90.7 µM; in experiment [9] it was over 100 µM; in experiment [8], over 100 µM.
Consider `Cc1cccc(C(=O)O)c1C(=O)c1cccc2ccccc12`, for which the TGI in experiment [1], in experiment [2], in experiment [3], in [4], in experiment [5] and in experiment [6] was over 100 µM in each case. Besides, the TGI in [9] and in experiment [8] was over 100 µM each time.
For `N#Cc1ccccc1NC(=O)C(=O)C1NC(=S)NC1=O` (stereo unspecified), the TGI in experiment [1], in [2], in experiment [4], in experiment [6], in experiment [7] and in [9] was over 100 µM each time. The same compound registered a TGI in experiment [8] of over 100 µM.
Consider `CCOC(=O)/C(=C/c1cccc(Cl)c1)N(CC)CC`, for which the TGI in experiment [2] is over 100 µM; in experiment [4] it was 77.8 µM; in experiment [5] it was over 100 µM; in [6], over 100 µM; in [7] it was over 100 µM; in experiment [9], over 100 µM. Further, in experiment [8], the TGI was over 100 µM.
As for `C#C[C@@]1(O)[C@@H](CO)O[C@@H](n2cc(I)c3c(N)ncnc32)[C@@H]1O`, the GI50 (in general, the concentration at which growth is held to half of that of the control) is 0.0731 µM in experiment [10]; 0.0996 µM in experiment [1]; 0.747 µM in [4]; 0.0901 µM in experiment [5]; 0.0962 µM in experiment [6]; 0.343 µM in experiment [7]. The GI50 was 1.96 µM in experiment [9] and 0.334 µM in experiment [8]. For the same compound, the TGI in [10] was 7.9 µM; in experiment [1], over 50 µM; in experiment [4], 8.69 µM; in [5], 3.19 µM; in experiment [6], over 100 µM; in experiment [7], 5.51 µM. Besides, the TGI in experiment [9] turned out to be 11.4 µM; in experiment [8] it was 3.24 µM.
On to `COc1cc2c(c(OC)c1OC)-c1ccc(SC)c(=O)cc1[C@@H](NCc1ccc([N+](=O)[O-])cc1)CC2`, for which the TGI in experiment [1] is over 100 µM; in [2] it was over 100 µM; in experiment [3] it was 1.06 µM; in experiment [4], over 100 µM; in [5], over 100 µM; in experiment [6] it was 0.0341 µM. Besides, the TGI in [7] and in experiment [8] was over 100 µM each time. For the same compound, in experiment [4], the GI50 is 0.429 µM.
For `Cc1c(C#N)cccc1[C@@H](C)Nc1nnc(C)c2cnc(N3CCOCC3)cc12`, the GI50 was 35.5 µM in experiment [10]; 25.3 µM in experiment [1]; 43.4 µM in [4]; 15.1 µM in [5]; 6.61 µM in [6]; 25.8 µM in experiment [7]. Further, the figures for the GI50 in experiment [9] and in experiment [8] were 28.3 µM and 13.7 µM, respectively. For the same compound, the TGI in [10], in experiment [1], in experiment [4], in experiment [5], in [6] and in experiment [7] was over 100 µM throughout. The TGI in experiment [9] and in experiment [8] was over 100 µM throughout.
As for `O=[N+]([O-])c1ccc(Cl)c(CNc2ncnc3c2ncn3C2CCCCO2)c1` (stereo unspecified), the TGI in [10], in [1], in experiment [4], in experiment [5], in [6] and in experiment [7] was over 100 µM each time. The TGI in experiment [9] and in experiment [8] was over 100 µM in each case.
For the compound `CC/C(Cc1ccccc1)=C(\c1ccc(OCCN2CCCC2)cc1)c1ccc(OC(=O)NCc2ccccc2)cc1`, the GI50 was 2.66 µM in [10]; 2.15 µM in [1]; 2.07 µM in [4]; 1.61 µM in [5]; 1.92 µM in experiment [6]; 2.25 µM in [7]. In addition, the GI50 in [9] is 1.72 µM; in experiment [8] it was 1.64 µM. For the same compound, the TGI was 10.3 µM in experiment [10]; 4.58 µM in experiment [1]; 3.75 µM in experiment [4]; 3 µM in experiment [5]; 3.81 µM in experiment [6]; 4.95 µM in experiment [7]. Besides, the TGI in experiment [9] turned out to be 3.18 µM; in [8], 3 µM.
As to `O=C(/C=C/C=C/c1ccccc1)c1ccco1`, the GI50 in experiment [10] was 16.4 µM; in experiment [1], 15.2 µM; in experiment [4], 22.2 µM; in experiment [5], 10.6 µM; in experiment [6], 11 µM; in experiment [7], 1.81 µM. The GI50 is 17 µM in experiment [9] and 15.2 µM in experiment [8]. In addition, the total growth inhibition concentration (TGI) in experiment [10] amounted to 36.7 µM; in [1], 31.9 µM; in [4] it was 45.8 µM; in [5], 22.6 µM; in experiment [6], 24.1 µM; in experiment [7], 10.7 µM. The TGI in [9] came to 31.6 µM; in experiment [8], 32.5 µM.
For the compound `Cc1ccc([N+](=O)[O-])c2c(NCCNC(=O)c3cc(C(=O)NCCNc4ccnc5c(C)ccc([N+](=O)[O-])c45)n(C)n3)ccnc12`, the TGI in experiment [10] was over 100 µM; in experiment [1] it was over 100 µM; in experiment [4], over 71.2 µM; in [5], over 100 µM; in [6] it was over 100 µM; in experiment [7] it was 78.3 µM. For the same compound, the TGI is over 78 µM in [9] and 98.2 µM in [8].
